Source: US20220367023A1, “Method for Predicting a Suitable Therapy” (National University of Singapore, priority 2019, published 2022)
Where two headings read alike, the source gives them in different places.

System: primary HSTCL cells from a patient
Assay: Ex vivo QPOP drug combination sensitivity, CellTiter-Glo cell viability (11 drugs at 3 doses, OACD)
Assay type: cell-based, human
[1] = Homo sapiens, concentration used in the ex vivo QPOP experiment, read-out: IC15
[2] = Homo sapiens, concentration used in the ex vivo QPOP experiment, read-out: IC30
[3] = output cell viability, 11 drugs at 3 doses
[4] = concentration used in the ex vivo QPOP experiment

Description: Tumor cells from an oncology patient sample are treated with a series of test drug combinations defined by Resolution IV Orthogonal Array Composite Design. This array of tests is used to derive coefficients for single drug and drug-drug interactions for all the drugs within the drug search set. These coefficients are used to calculate a predicted output of potential drug combinations (up to 4 drugs) from the drug search set. Patient-specific drug combinations are prioritized based on predicted output of single drug, 2-drug, 3-drug or 4-drug combinations.
In the current embodiment, primary patient sample that contains tumor cells, either from a blood sample or solid tumor biopsy, is collected. Tumor cells are isolated and seeded 2000 cells/well in Nunc™ 384-Well Clear Polystyrene Plates. In the examples used here, cell viability was performed using the CellTiter-Glo® Luminescent Cell Viability Assay following the manufacturer's instructions (Promega, Madison, Wis., USA).
Datasets for analysis by QPOP are built by ex vivo treatment of primary patient tumor cells with a series of drug combinations determined by orthogonal array composite design (OACD) to use the least number of combinations sufficient for factor screening and in-depth analyses, in concentrations that are at or below clinically approved doses (max Pk conc.), Table 1. […] In these examples here, the viability of cells exposed to the various drug combinations are the phenotypic output which is analyzed by the QPOP assay. The correlation of treatment combination (input) and viability (output) was fitted into a second-order quadratic equation. The coefficients of the second-order equation represent the correlation between the input, drug dose of the drug combination, and the output cell viability, allowing for optimizing drug combination. In the analysis, each drug combination was represented as a vector and coded dosages were used in MATLAB. The second-order quadratic equation is as follows:
where y represents the desired output, xn is the nth drug dosage, β0 is the intercept term, βn is the single-drug coefficient of the nth drug, βmn is the interaction coefficient between the mth and nth drugs, and βnn is the quadratic coefficient for the nth drug. […] The coefficients were calibrated using the data points in dose response assay of single drugs and drug combination (Table 2). To ensure the robustness and integrity of the assay, Z′ score is calculated after every QPOP analysis.

Compound	IC15 [1] [µM]	IC30 [2] [µM]	Coefficient estimates of the second-order quadratic fit [3]	IC15 (Homo sapiens) [µM]	IC30 (Homo sapiens) [µM]	also measured
CC(C)C[C@H](NC(=O)[C@H](Cc1ccccc1)NC(=O)c1cnccn1)B(O)O [Bortezomib]	0.006	0.012	5456			
N.N.[Cl][Pt][Cl] [Cisplatin]			−0.06756			IC15 (concentration used in the ex vivo QPOP experiment, read-out: IC15): 1.5 µM; IC30 (concentration used in the ex vivo QPOP experiment, read-out: IC30): 3 µM; Estimate, single-drug coefficient of the second-order quadratic fit [3]: 0.06189
O=P1(N(CCCl)CCCl)NCCCO1 (centres unmarked) [Cyclophosphamide]				30	60	
Nc1ccn([C@@H]2O[C@H](CO)[C@@H](O)[C@@H]2O)c(=O)n1 [Cytarabine]				0.233	0.466	
C[C@@H]1C[C@H]2[C@@H]3CCC4=CC(=O)C=C[C@]4(C)[C@@]3(F)[C@@H](O)C[C@]2(C)[C@@]1(O)C(=O)CO [Dexamethasone]				0.06	0.12	
COc1cccc2c1C(=O)c1c(O)c3c(c(O)c1C2=O)C[C@@](O)(C(=O)CO)C[C@@H]3O[C@H]1C[C@H](N)[C@H](O)[C@H](C)O1 [Doxorubucin]	0.0225	0.045				
COc1cc([C@@H]2c3cc4c(cc3[C@@H](O[C@@H]3O[C@@H]5CO[C@@H](C)O[C@H]5[C@H](O)[C@H]3O)[C@H]3COC(=O)[C@H]23)OCO4)cc(OC)c1O [Etoposide]	0.283	0.565	−3.739			
Nc1ccn([C@@H]2O[C@H](CO)[C@@H](O)C2(F)F)c(=O)n1 [Gemcitabine]	0.00779	0.0156				
O=P1(NCCCl)OCCCN1CCCl (centres unmarked) [Ifosfamide]				15	30	Estimate, quadratic coefficient of the second-order quadratic fit [3]: 0.001006
CN(Cc1cnc2nc(N)nc(N)c2n1)c1ccc(C(=O)N[C@@H](CCC(=O)O)C(=O)O)cc1 [Methotrexate]	0.3	0.6				
L-asparaginase			2.237			IC15 [4]: 0.3 IU/ml; IC30 [4]: 0.6 IU/ml; Estimate, single-drug coefficient of the second-order quadratic fit [3]: −1.282
